Experimental data from patent US4684664A, “Derivatives of β-(4-isocyano-1,2,3,4-diepoxycyclopentyl) acrylic acid” (Kureha Kagaku Kogyo Kabushiki Kaisha, priority 1984, dated 1987).
Like-named read-outs stand apart in the source and are kept apart here.

What was measured:
Type in all cases: cell-based
[1] = test system: Salmonella typhimurium IID 971; assay: Antibacterial activity, agar-dilution MIC, organism No. 8; conditions: Salmonella enterica, read-out: Minimum Inhibitory Concentration
In short: (§1)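 An agar-dilution procedure on bouillon-agar medium was applied, and each MIC was recorded as micrograms of specimen per ml of medium.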

[2] = test system: Bacillus subtilis ATCC 6633; assay: Antibacterial activity, agar-dilution MIC, organism No. 14; conditions: Bacillus subtilis
In short: as §1

[3] = test system: Streptococcus pyogenes Cook; assay: Antibacterial activity, agar-dilution MIC, organism No. 4; conditions: Streptococcus pyogenes, read-out: Minimum Inhibitory Concentration
In short: as §1

Salmonella typhi 901 = assay: Antibacterial activity, agar-dilution MIC, organism No. 9; conditions: Salmonella enterica, TYPHI, read-out: Minimum Inhibitory Concentration
In short: as §1

[4] = test system: Staphylococcus aureus Terajima; assay: Antibacterial activity, agar-dilution MIC, organism No. 2; conditions: Staphylococcus aureus, read-out: Minimum Inhibitory Concentration
In short: as §1

[5] = test system: Salmonella shottmuelleri 8006; assay: Antibacterial activity, agar-dilution MIC, organism No. 11
In short: as §1

[6] = test system: Enterobacter aerogenes ATCC 13048; assay: Antibacterial activity, agar-dilution MIC, organism No. 23; conditions: Klebsiella aerogenes
In short: as §1

[7] = test system: Aspergillus niger IFO 6342; assay: Antifungal activity, agar-dilution MIC, organism No. 30; conditions: Aspergillus niger
In short: as §1

Proteus vulgaris OX-19 = assay: Antibacterial activity, agar-dilution MIC, organism No. 20; conditions: Proteus vulgaris
In short: as §1

[8] = test system: Escherichia coli NIHJ-JC-2; assay: Antibacterial activity, agar-dilution MIC, organism No. 5; conditions: Escherichia coli
In short: as §1

Proteus vulgaris HX-19 = assay: Antibacterial activity, agar-dilution MIC, organism No. 21; conditions: Proteus vulgaris
In short: as §1

[9] = test system: Pseudomonas aeruginosa IFO 3445; assay: Antibacterial activity, agar-dilution MIC, organism No. 15; conditions: Pseudomonas aeruginosa
In short: as §1

[10] = test system: Escherichia coli K12 C600 IAM 1264; assay: Antibacterial activity, agar-dilution MIC, organism No. 6; conditions: Escherichia coli
In short: as §1

[11] = test system: Salmonella paratyphi-A 1015; assay: Antibacterial activity, agar-dilution MIC, organism No. 10; conditions: Salmonella enterica, PARATYPHI, read-out: Minimum Inhibitory Concentration
In short: as §1

[12] = test system: Serratia marcescens IAM 1184; assay: Antibacterial activity, agar-dilution MIC, organism No. 13; conditions: Serratia marcescens
Source text: Agar-dilution method was used for determination of the antibacterial activity and antifungal activity while using bouillon-agar culture medium, and the minimum inhibitory concentration of the specimen was expressed by μg/ml of the culture medium.

[13] = test system: Candida albicans IAM 4905; assay: Antifungal activity, agar-dilution MIC, organism No. 29; conditions: Candida albicans
In short: as §1

[14] = test system: Salmonella enteritidis G 14; assay: Antibacterial activity, agar-dilution MIC, organism No. 12; conditions: Salmonella enterica, ENTERITIDIS, read-out: Minimum Inhibitory Concentration
In short: as §1

[15] = test system: Micrococcus luteus ATCC 9341; assay: Antibacterial activity, agar-dilution MIC, organism No. 25; conditions: Micrococcus luteus
In short: as §1

[16] = test system: Proteus rettgeri IFO 3850; assay: Antibacterial activity, agar-dilution MIC, organism No. 22; conditions: Providencia rettgeri
In short: as §1

[17] = test system: Proteus morganii IFO 3848; assay: Antibacterial activity, agar-dilution MIC, organism No. 18; conditions: Morganella morganii
In short: as §1

[18] = test system: Klebsiella pneumoniae PCI-602; assay: Antibacterial activity, agar-dilution MIC, organism No. 7; conditions: Klebsiella pneumoniae
In short: as §1

[19] = test system: Proteus mirabilis IFO 3849; assay: Antibacterial activity, agar-dilution MIC, organism No. 19; conditions: Proteus mirabilis
In short: as §1

[20] = test system: Staphylococcus aureus FDA 209PJc-1; assay: Antibacterial activity, agar-dilution MIC, organism No. 1; conditions: Staphylococcus aureus
In short: as §1

[21] = test system: Pseudomonas aeruginosa NCTC 10490; assay: Antibacterial activity, agar-dilution MIC, organism No. 16; conditions: Pseudomonas aeruginosa
In short: as §1

[22] = test system: Pseudomonas aeruginosa PAO 1; assay: Antibacterial activity, agar-dilution MIC, organism No. 17; conditions: Pseudomonas aeruginosa
In short: as §1

[23] = test system: Staphylococcus aureus MS 353; assay: Antibacterial activity, agar-dilution MIC, organism No. 3; conditions: Staphylococcus aureus
In short: as §1

Enterobacter cloacae 963 = assay: Antibacterial activity, agar-dilution MIC, organism No. 24
In short: as §1

[24] = test system: Streptococcus pyogenes IFO 3340; assay: Antibacterial activity, agar-dilution MIC, organism No. 26; conditions: Streptococcus pyogenes, IFO3340, read-out: Minimum Inhibitory Concentration
In short: as §1

[25] = test system: Streptococcus faecium IFO 3826; assay: Antibacterial activity, agar-dilution MIC, organism No. 27; conditions: Enterococcus faecium, IFO3826, read-out: Minimum Inhibitory Concentration
In short: as §1

[26] = ATCC6633, read-out: Minimum Inhibitory Concentration
[27] = Salmonella, 8006, read-out: Minimum Inhibitory Concentration
[28] = ATCC13048, read-out: Minimum Inhibitory Concentration
[29] = IFO6342, read-out: Minimum Inhibitory Concentration
[30] = OX19, read-out: Minimum Inhibitory Concentration
[31] = NIHJJC2, read-out: Minimum Inhibitory Concentration
[32] = HX19, read-out: Minimum Inhibitory Concentration
[33] = IFO3445, read-out: Minimum Inhibitory Concentration
[34] = IAM1264, read-out: Minimum Inhibitory Concentration
[35] = IAM1184, read-out: Minimum Inhibitory Concentration
[36] = IAM4905, read-out: Minimum Inhibitory Concentration
[37] = ATCC9341, read-out: Minimum Inhibitory Concentration
[38] = IFO3850, read-out: Minimum Inhibitory Concentration
[39] = IFO3848, read-out: Minimum Inhibitory Concentration
[40] = PCI602, read-out: Minimum Inhibitory Concentration
[41] = IFO3849, read-out: Minimum Inhibitory Concentration
[42] = FDA209PJC1, read-out: Minimum Inhibitory Concentration
[43] = NCTC10490, read-out: Minimum Inhibitory Concentration
[44] = PAO1, read-out: Minimum Inhibitory Concentration
[45] = MS353, read-out: Minimum Inhibitory Concentration
[46] = Enterobacter cloacae, 963, read-out: Minimum Inhibitory Concentration

Measured: MIC

[C-]#[N+]C12CC3(/C=C/C(=O)Nc4ccncc4)OC3C1O2 (centres unmarked) [compound 72]
12.5 µg/mL: [2]; [26] | [3] | Salmonella typhi 901 | [14]
100 µg/mL: [12]; [35]
> 200 µg/mL: [6]; [28] | [9]; [33] | [19]; [41] | [21]; [43] | [22]; [44]
50 µg/mL: [8]; [31] | [10]; [34] | [15]; [37]
3.13 µg/mL: [11] | [18]; [40] | [23]; [45]
6.25 µg/mL: [4] | [5]; [27] | [7]; [29] | Proteus vulgaris OX-19; [30] | Proteus vulgaris HX-19; [32] | [13]; [36] | [17]; [39]
1.56 µg/mL: [20]; [42]
200 µg/mL: [16]; [38] | Enterobacter cloacae 963; [46]
25 µg/mL: [1]

[C-]#[N+]C12CC3(/C=C/C(=O)Nc4nnc(C)s4)OC3C1O2 (centres unmarked) [compound 71]
1.56 µg/mL: [20]; FDA209PJC1, Organism No. 1, bouillon-agar, read-out: Minimum Inhibitory Concentration
25 µg/mL: Salmonella typhi 901
6.25 µg/mL: Proteus vulgaris OX-19; OX19, Organism No. 20, bouillon-agar, read-out: Minimum Inhibitory Concentration | Proteus vulgaris HX-19; HX19, Organism No. 21, bouillon-agar, read-out: Minimum Inhibitory Concentration | [23]; MS353, Organism No. 3, bouillon-agar, read-out: Minimum Inhibitory Concentration
> 200 µg/mL: [1]; Organism No. 8, bouillon-agar | [2]; ATCC6633, Organism No. 14, bouillon-agar, read-out: Minimum Inhibitory Concentration | [6]; ATCC13048, Organism No. 23, bouillon-agar, read-out: Minimum Inhibitory Concentration | [8]; NIHJJC2, Organism No. 5, bouillon-agar, read-out: Minimum Inhibitory Concentration | [9]; IFO3445, Organism No. 15, bouillon-agar, read-out: Minimum Inhibitory Concentration | [10]; IAM1264, Organism No. 6, bouillon-agar, read-out: Minimum Inhibitory Concentration | [12]; IAM1184, Organism No. 13, bouillon-agar, read-out: Minimum Inhibitory Concentration | [15]; ATCC9341, Organism No. 25, bouillon-agar, read-out: Minimum Inhibitory Concentration | [16]; IFO3850, Organism No. 22, bouillon-agar, read-out: Minimum Inhibitory Concentration | [18]; PCI602, Organism No. 7, bouillon-agar, read-out: Minimum Inhibitory Concentration | [19]; IFO3849, Organism No. 19, bouillon-agar, read-out: Minimum Inhibitory Concentration | [21]; NCTC10490, Organism No. 16, bouillon-agar, read-out: Minimum Inhibitory Concentration | [22]; PAO1, Organism No. 17, bouillon-agar, read-out: Minimum Inhibitory Concentration | Enterobacter cloacae 963; Enterobacter cloacae, 963, Organism No. 24, bouillon-agar, read-out: Minimum Inhibitory Concentration
100 µg/mL: [5]; Salmonella, 8006, Organism No. 11, bouillon-agar, read-out: Minimum Inhibitory Concentration
12.5 µg/mL: [3]; Organism No. 4, bouillon-agar | [4]; Organism No. 2, bouillon-agar | [11] | [13]; IAM4905, Organism No. 29, bouillon-agar, read-out: Minimum Inhibitory Concentration | [17]; IFO3848, Organism No. 18, bouillon-agar, read-out: Minimum Inhibitory Concentration
200 µg/mL: [7]; IFO6342, Organism No. 30, bouillon-agar, read-out: Minimum Inhibitory Concentration | [14]; Organism No. 12, bouillon-agar

[C-]#[N+]C12CC3(/C=C/C(=O)Nc4ccc(OC)cc4)OC3C1O2 (centres unmarked) [compound 53]
0.79 µg/mL: [13]; [36]
50 µg/mL: Enterobacter cloacae 963; [46]
1.56 µg/mL: [1] | [7]; [29]
6.25 µg/mL: [2]; [26] | [3] | [25]
12.5 µg/mL: [8]; [31]
3.13 µg/mL: [10]; [34] | [19]; [41]
< 0.05 µg/mL: [4] | [5]; [27] | Proteus vulgaris OX-19; [30] | Proteus vulgaris HX-19; [32] | [11] | [15]; [37] | [17]; [39] | [18]; [40] | [20]; [42] | [23]; [45]
25 µg/mL: [12]; [35]
> 200 µg/mL: [6]; [28] | [9]; [33] | [21]; [43] | [22]; [44]
0.78 µg/mL: [16]; [38]
0.39 µg/mL: Salmonella typhi 901 | [24] | [14]
